Laboratory results taken from the NIST ThermoML archive (doi:10.1016/j.jct.2011.08.016).

Experiment: xn = mol fraction of the nth substance listed
Details: Liquid, Vibrating tube method

CCCCCCCCCC [decane] + CCCCCCC
Details	mass density [kg/m3]
343.11 K, 10000 kPa, x2 = 0.2594	691.9
343.11 K, 10000 kPa, x2 = 0.952	656.24
343.11 K, 11000 kPa, x2 = 0.2594	692.89
343.11 K, 11000 kPa, x2 = 0.952	657.38
343.11 K, 12000 kPa, x2 = 0.2594	693.86
343.11 K, 12000 kPa, x2 = 0.952	658.49
343.11 K, 13000 kPa, x2 = 0.2594	694.82
343.11 K, 13000 kPa, x2 = 0.952	659.59
343.11 K, 14000 kPa, x2 = 0.2594	695.76
343.11 K, 14000 kPa, x2 = 0.952	660.67
343.11 K, 15000 kPa, x2 = 0.2594	696.69
343.11 K, 15000 kPa, x2 = 0.952	661.74
343.11 K, 16000 kPa, x2 = 0.2594	697.6
343.11 K, 16000 kPa, x2 = 0.952	662.78
343.11 K, 17000 kPa, x2 = 0.2594	698.5
343.11 K, 17000 kPa, x2 = 0.952	663.81
343.11 K, 18000 kPa, x2 = 0.2594	699.38
343.11 K, 18000 kPa, x2 = 0.952	664.84
343.11 K, 19000 kPa, x2 = 0.2594	700.22
343.11 K, 19000 kPa, x2 = 0.952	665.84
343.11 K, 20000 kPa, x2 = 0.2594	701.09
343.11 K, 20000 kPa, x2 = 0.952	666.82
343.11 K, 21000 kPa, x2 = 0.2594	701.92
343.11 K, 21000 kPa, x2 = 0.952	667.78
343.11 K, 22000 kPa, x2 = 0.2594	702.73
343.11 K, 22000 kPa, x2 = 0.952	668.7
343.11 K, 23000 kPa, x2 = 0.2594	703.51
343.11 K, 23000 kPa, x2 = 0.952	669.62
343.11 K, 24000 kPa, x2 = 0.2594	704.28
343.11 K, 24000 kPa, x2 = 0.952	670.52
343.11 K, 25000 kPa, x2 = 0.2594	705.05
343.11 K, 25000 kPa, x2 = 0.952	671.4
353.06 K, 1000 kPa, x2 = 0.0531	682.62
353.06 K, 2000 kPa, x2 = 0.0531	683.77
353.06 K, 3000 kPa, x2 = 0.0531	684.88
353.06 K, 4000 kPa, x2 = 0.0531	685.98
353.06 K, 5000 kPa, x2 = 0.0531	687.07
353.06 K, 6000 kPa, x2 = 0.0531	688.13
353.06 K, 7000 kPa, x2 = 0.0531	689.17
353.06 K, 8000 kPa, x2 = 0.0531	690.21
353.06 K, 9000 kPa, x2 = 0.0531	691.24
353.06 K, 10000 kPa, x2 = 0.0531	692.24
353.06 K, 11000 kPa, x2 = 0.0531	693.24
353.06 K, 12000 kPa, x2 = 0.0531	694.22
353.06 K, 13000 kPa, x2 = 0.0531	695.18
353.06 K, 14000 kPa, x2 = 0.0531	696.13
353.06 K, 15000 kPa, x2 = 0.0531	697.07
353.06 K, 16000 kPa, x2 = 0.0531	698
353.06 K, 17000 kPa, x2 = 0.0531	698.9
353.06 K, 18000 kPa, x2 = 0.0531	699.8
353.06 K, 19000 kPa, x2 = 0.0531	700.69
353.06 K, 20000 kPa, x2 = 0.0531	701.57
353.06 K, 21000 kPa, x2 = 0.0531	702.43
353.06 K, 22000 kPa, x2 = 0.0531	703.3
353.06 K, 23000 kPa, x2 = 0.0531	704.13
353.06 K, 24000 kPa, x2 = 0.0531	704.96
353.06 K, 25000 kPa, x2 = 0.0531	705.78
353.08 K, 1000 kPa, x2 = 0.5219	662.57
353.08 K, 1000 kPa, x2 = 0.777	647.84
353.08 K, 2000 kPa, x2 = 0.5219	663.78
353.08 K, 2000 kPa, x2 = 0.777	649.19
353.08 K, 3000 kPa, x2 = 0.5219	664.95
353.08 K, 3000 kPa, x2 = 0.777	650.47
353.08 K, 4000 kPa, x2 = 0.5219	666.13
353.08 K, 4000 kPa, x2 = 0.777	651.73
353.08 K, 5000 kPa, x2 = 0.5219	667.28
353.08 K, 5000 kPa, x2 = 0.777	653.01
353.08 K, 6000 kPa, x2 = 0.5219	668.44
353.08 K, 6000 kPa, x2 = 0.777	654.25
353.08 K, 7000 kPa, x2 = 0.5219	669.57
353.08 K, 7000 kPa, x2 = 0.777	655.46
353.08 K, 8000 kPa, x2 = 0.5219	670.7
353.08 K, 8000 kPa, x2 = 0.777	656.67
353.08 K, 9000 kPa, x2 = 0.5219	671.82
353.08 K, 9000 kPa, x2 = 0.777	657.88
353.08 K, 10000 kPa, x2 = 0.5219	672.93
353.08 K, 10000 kPa, x2 = 0.777	659.06
353.08 K, 11000 kPa, x2 = 0.5219	674.03
353.08 K, 11000 kPa, x2 = 0.777	660.22
353.08 K, 12000 kPa, x2 = 0.5219	675.1
353.08 K, 12000 kPa, x2 = 0.777	661.36
353.08 K, 13000 kPa, x2 = 0.5219	676.17
353.08 K, 13000 kPa, x2 = 0.777	662.49
353.08 K, 14000 kPa, x2 = 0.5219	677.22
353.08 K, 14000 kPa, x2 = 0.777	663.61
353.08 K, 15000 kPa, x2 = 0.5219	678.26
353.08 K, 15000 kPa, x2 = 0.777	664.7
353.08 K, 16000 kPa, x2 = 0.5219	679.28
353.08 K, 16000 kPa, x2 = 0.777	665.77
353.08 K, 17000 kPa, x2 = 0.5219	680.26
353.08 K, 17000 kPa, x2 = 0.777	666.82
353.08 K, 18000 kPa, x2 = 0.5219	681.28
353.08 K, 18000 kPa, x2 = 0.777	667.86
353.08 K, 19000 kPa, x2 = 0.5219	682.2
